Source: US9765018B2, “IDO inhibitors” (BRISTOL-MYERS SQUIBB COMPANY, priority 2013, dated 2017)

Legend:
Human IDO1 = Human IDO1 (Homo sapiens (Human), UniProt P14902); assay: IDO Kynurenine Assay with Human IDO1/HEK293 Cells; assay type: cell-based; details: HEK293 cells with human IDO1; read-out: HEK human IDO-1 (IC50)
Method: IDO Kynurenine Assay with Human IDO1/HEK293 Cells
Human IDO1/HEK293 cells were seeded at 10,000 cells per 50 uL per well with RPMI/phenol red free media contains 10% FBS in a 384-well black wall clear bottom tissue culture plate (Matrix Technologies LLC) 125 nL of certain concentration of compound was then added to each well using ECHO liquid handling systems. The cells were incubated for 20 hours in 37° C. incubator with 5% CO2.
The compound treatments were stopped by adding Trichloroacetic Acid (Sigma-Aldrich) to a final concentration at 0.2%. The cell plate was further incubated at 50° C. for 30 minute. The equal volume supernatant (20 uL) and 0.2% (w/v) Ehrlich reagent (4-dimethylaminobenzaldehyde, Sigma-Aldrich) in glacial acetic acid were mixed in a new clear bottom 384-well plate. This plate was then incubated at room temperature for 30 minute. The absorbance at 490 nm was measured on Envision plate reader.

IDO [1] = molecular target: T1, IDO (Homo sapiens (Human), UniProt P14902); assay: LLE_IDO_ABS_DR (IDO assay, method not described)
IDO [2] = molecular target: T1, IDO; assay: Kynurenine assay in IFN-γ-stimulated Hela cells; assay type: cell-based; details: 20 h, read-out: Hela Kyurenine (IC50)
Summary of the method: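 Kynurenine in supernatant is read at 490 nm after Ehrlich reagent (10 min RT), following TCA stop and 30 min at 50° C hydrolysis. Before that, Hela cells in phenol red-free RPMI/10% FBS were co-treated 20 h at 37° C with 100 ng/mL IFN-γ and compound (30 μM top, 3-fold series to 1.5 nM).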

T1 sequence (P14902 whole entry): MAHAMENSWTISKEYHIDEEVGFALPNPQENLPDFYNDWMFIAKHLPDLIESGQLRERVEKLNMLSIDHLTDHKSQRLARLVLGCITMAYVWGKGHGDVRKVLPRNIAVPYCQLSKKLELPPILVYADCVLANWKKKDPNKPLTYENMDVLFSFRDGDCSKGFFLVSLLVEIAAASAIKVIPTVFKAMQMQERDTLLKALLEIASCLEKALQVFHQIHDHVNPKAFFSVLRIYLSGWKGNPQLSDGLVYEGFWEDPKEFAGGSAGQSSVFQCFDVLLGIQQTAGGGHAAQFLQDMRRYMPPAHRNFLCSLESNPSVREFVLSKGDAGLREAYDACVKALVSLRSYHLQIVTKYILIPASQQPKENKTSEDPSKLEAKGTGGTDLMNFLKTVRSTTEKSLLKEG
Chain of Human IDO1 (P14902 whole entry): as above

Structure (SMILES)	IC50 (Human IDO1) [µM]	IC50 (IDO [1]) [µM]	IC50 (IDO [2]) [µM]
C=CC(c1ccccc1)c1cc(-c2ccccc2-c2nnn[nH]2)cc(NC(=O)Nc2ccc(C)cc2)c1OCCC (racemic) [Example 8, 1-(5-(1-Phenylallyl)-4-propoxy-2′-(1H-tetrazol-5-yl)-[1,1′-biphenyl]-3-yl)-3-(p-tolyl)urea]	0.03	0.01	–
Cc1ccc(NC(=O)Nc2cc(-c3ccc(Cl)c(C(=O)O)c3)ccc2Oc2ccccc2C(C)(C)C)cc1 [Example 1, 4′-(2-tert-Butylphenoxy)-4-chloro-3′-(3-p-tolylureido)biphenyl-3-carboxylic acid]	6.18	–	2.42
CCCOc1c(CCC)cc(-c2ccccc2-c2nnn[nH]2)cc1NC(=O)Nc1ccc(C)cc1 [Example 16, 1-(4-Propoxy-5-propyl-2′-(1H-tetrazol-5-yl)-[1,1′-biphenyl]-3-yl)-3-(p-tolyl)urea]	0.03	0.03	–
C/C=C/Cc1cc(-c2ccccc2-c2nnn[nH]2)cc(NC(=O)Nc2ccc(C)cc2)c1OCCC [Example 19, (E)-1-(5-(But-2-en-1-yl)-4-propoxy-2′-(1H-tetrazol-5-yl)-[1,1′-biphenyl]-3-yl)-3-(p-tolyl)urea]	0.03	0.02	–
CCCCc1cc(-c2ccccc2-c2nnn[nH]2)cc(NC(=O)Nc2ccc(C)cc2)c1OCCC [Example 22, 1-(5-Butyl-4-propoxy-2′-(1H-tetrazol-5-yl)-[1,1′-biphenyl]-3-yl)-3-(p-tolyl)urea]	0.00592	0.02	–
CCCOc1c(/C=C/CC(F)(F)F)cc(-c2ccccc2-c2nnn[nH]2)cc1NC(=O)Nc1ccc(C)cc1 [Example 29, (E)-1-(4-Propoxy-2′-(1H-tetrazol-5-yl)-5-(4,4,4-trifluorobut-1-en-1-yl)-[1,1′-biphenyl]-3-yl)-3-(p-tolyl)urea]	0.03	0.03	–
CCCOc1c(/C=C/C=C(F)F)cc(-c2ccccc2-c2nnn[nH]2)cc1NC(=O)Nc1ccc(C)cc1 [Example 30, (E)-1-(5-(4,4-Difluorobuta-1,3-dien-1-yl)-4-propoxy-2′-(1H-tetrazol-5-yl)-[1,1′-biphenyl]-3-yl)-3-(p-tolyl)urea]	0.02	0.00995	–
CCCOc1c(CCCC(F)(F)F)cc(-c2ccccc2-c2nnn[nH]2)cc1NC(=O)Nc1ccc(C)cc1 [Example 31, 1-(4-Propoxy-2′-(1H-tetrazol-5-yl)-5-(4,4,4-trifluorobutyl)-[1,1′-biphenyl]-3-yl)-3-(p-tolyl)urea]	0.02	0.04	–
COc1ccccc1Oc1ccc(-c2ccc(OC)c(C(=O)O)c2)cc1NC(=O)Nc1ccc(C)cc1 [Example 69, 4-methoxy-4′-(2-methoxyphenoxy)-3′-(3-p-tolylureido)biphenyl-3-carboxylic acid]	6.19	–	2.09
COc1ccc(-c2ccc(Oc3cccc4c3OC(C)(C)C4)c(NC(=O)Nc3ccc(C)cc3)c2)cc1C(=O)O [Example 135, 4′-(2,2-dimethyl-2,3-dihydrobenzofuran-7-yloxy)-4-methoxy-3′-(3-p-tolylureido)biphenyl-3-carboxylic acid]	5.17	–	2.24
CCCCNC(=O)Nc1cc(-c2ccccc2-c2nnn[nH]2)ccc1Oc1ccccc1C(C)(C)C [Example 191, 1-butyl-3-(4-(2-tert-butylphenoxy)-2′-(1H-tetrazol-5-yl)biphenyl-3-yl)urea]	–	1.21	0.34
COc1ccc(-c2ccc(Oc3ccccc3C(C)(C)C)c(NC(=O)Nc3ccccc3Cl)c2)c(-c2nnn[nH]2)c1 [Example 192, 1-(4-(2-tert-butylphenoxy)-4′-methoxy-2′-(1H-tetrazol-5-yl)biphenyl-3-yl)-3-(2-chlorophenyl)urea]	–	1.44	0.37
COc1ccc(-c2ccc(Oc3ccccc3C(C)(C)C)c(NC(=O)Nc3ccccc3C)c2)c(-c2nnn[nH]2)c1 [Example 193, 1-(4-(2-tert-butylphenoxy)-4′-methoxy-2′-(1H-tetrazol-5-yl)biphenyl-3-yl)-3-o-tolylurea]	–	1.16	0.25
Cc1cccc(NC(=O)Nc2cc(-c3ccc(C(=O)O)cc3)ccc2Oc2ccccc2C(C)(C)C)c1 [Example 201, 4′-(2-tert-butylphenoxy)-3′-(3-m-tolylureido) biphenyl-4-carboxylic acid]	–	8.15	0.78
O=C(Nc1ccc(Cl)cc1)Nc1cc(-c2ccc(C(=O)O)c(Cl)c2)ccc1Oc1ccccc1C(F)(F)F [Example 206, 3-chloro-3′-(3-(4-chlorophenyl)ureido)-4′-(2-(trifluoromethyl)phenoxy)biphenyl-4-carboxylic acid]	–	3.35	0.85
Cc1cccc(NC(=O)Nc2cc(-c3ccc(C(=O)O)c(Cl)c3)ccc2Oc2ccccc2C(C)(C)C)c1 [Example 213, 4′-(2-tert-butylphenoxy)-3-chloro-3′-(3-m-tolylureido) biphenyl-4-carboxylic acid]	–	2.56	0.93
CC(C)(C)c1ccccc1Oc1ccc(-c2ccc(C(=O)O)c(Cl)c2)cc1NC(=O)Nc1ccccc1Cl [Example 215, 4′-(2-tert-butylphenoxy)-3-chloro-3′-(3-(2-chlorophenyl)ureido)biphenyl-4-carboxylic acid]	–	1.83	0.3

Structure (SMILES)	IC50 (Human IDO1) [µM]	IC50 (IDO [1]) [µM]	IC50 (IDO [2]) [µM]
CC(C)(C)c1ccccc1Oc1ccc(-c2cccc(C(=O)O)c2)cc1NC(=O)Nc1ccc(OC(F)F)cc1 [Example 223, 4′-(2-tert-butylphenoxy)-3′-(3-(4-(difluoromethoxy)phenyl)ureido) biphenyl-3-carboxylic acid]	7.5	–	2.64
Cc1ccccc1NC(=O)Nc1cc(-c2cccc(C(=O)O)c2)ccc1Oc1ccccc1C(C)(C)C [Example 224, 4′-(2-tert-butylphenoxy)-3′-(3-o-tolylureido) biphenyl-3-carboxylic acid]	7.5	–	1.02
Cc1ccc(NC(=O)Nc2cc(-c3cccc(C(=O)O)c3)ccc2Oc2ccccc2C(C)(C)C)cc1 [Example 226, 4′-(2-tert-butylphenoxy)-3′-(3-p-tolylureido) biphenyl-3-carboxylic acid]	9.19	–	0.79
COc1ccccc1NC(=O)Nc1cc(-c2cccc(C(=O)O)c2)ccc1Oc1ccccc1C(C)(C)C [Example 227, 4′-(2-tert-butylphenoxy)-3′-(3-(2-methoxyphenyl)ureido)biphenyl-3-carboxylic acid]	–	10	0.93
COc1cccc(NC(=O)Nc2cc(-c3cccc(C(=O)O)c3)ccc2Oc2ccccc2C(C)(C)C)c1 [Example 229, 4′-(2-tert-butylphenoxy)-3′-(3-(3-methoxyphenyl)ureido)biphenyl-3-carboxylic acid]	7.5	–	1.89
COc1ccc(NC(=O)Nc2cc(-c3cccc(C(=O)O)c3)ccc2Oc2ccccc2C(C)(C)C)cc1 [Example 230, 4′-(2-tert-butylphenoxy)-3′-(3-(4-methoxyphenyl)ureido)biphenyl-3-carboxylic acid]	7.5	–	1.81
CC(C)(C)c1ccccc1Oc1ccc(-c2cccc(C(=O)O)c2)cc1NC(=O)Nc1ccc(Cl)cc1 [Example 232, 4′-(2-tert-butylphenoxy)-3′-(3-(4-chlorophenyl)ureido)biphenyl-3-carboxylic acid]	7.5	–	1.8
CC(C)(C)c1ccccc1Oc1ccc(-c2cccc(C(=O)O)c2)cc1NC(=O)Nc1ccc(Br)cc1 [Example 233, 3′-(3-(4-bromophenyl)ureido)-4′-(2-tert-butylphenoxy) biphenyl-3-carboxylic acid]	7.5	–	2.89
Cc1ccccc1NC(=O)Nc1cc(-c2cc(Cl)cc(C(=O)O)c2)ccc1Oc1ccccc1C(C)(C)C [Example 238, 4′-(2-tert-butylphenoxy)-5-chloro-3′-(3-o-tolylureido) biphenyl-3-carboxylic acid]	–	10	0.44
Cc1ccc(NC(=O)Nc2cc(-c3cc(Cl)cc(C(=O)O)c3)ccc2Oc2ccccc2C(C)(C)C)cc1 [Example 246, 4′-(2-tert-butylphenoxy)-5-chloro-3′-(3-p-tolylureido) biphenyl-3-carboxylic acid]	–	3.94	0.7
Cc1ccc(NC(=O)Nc2cc(-c3ccc(C(=O)O)c(Cl)c3)ccc2Oc2ccccc2C(C)(C)C)cc1 [Example 257, 4′-(2-tert-butylphenoxy)-3-chloro-3′-(3-p-tolylureido) biphenyl-4-carboxylic acid]	–	1.25	0.44
O=C(Nc1ccc(Cl)cc1)Nc1cc(-c2ccccc2-c2nnn[nH]2)cc(CC2CC2)c1OC1CCOCC1 [Example 331]	–	0.81	0.52
COc1ccc(-c2cnc(Oc3ccccc3C(C)(C)C)c(NC(=O)Nc3cccc(C)c3)c2)cc1C(=O)O [Example 334]	–	16.7	0.38
COc1ccc(-c2cnc(Oc3ccccc3C(C)(C)C)c(NC(=O)Nc3ccccc3Cl)c2)cc1C(=O)O [Example 336]	–	1.11	0.76
Cc1ccc(NC(=O)Nc2cc(-c3cc(Cl)cc(C(=O)O)c3)cnc2Oc2ccccc2C(C)(C)C)cc1 [Example 337]	7.5	–	2.26
Cc1ccc(NC(=O)Nc2cc(-c3cncc(C(=O)O)c3)cnc2Oc2ccccc2)cc1 [Example 339]	6.18	–	2.42
